Source: patent US9850206B2, “S1P and/or ATX modulating agents” (BIOGEN MA INC., priority 2012, dated 2017)
Like-named read-outs stand apart in the source and are kept apart here.

How the values were obtained:
S1P1 = S1P1 (Homo sapiens, UniProt P21453); experiment: S1P receptor activity assay (calcium flux, FLIPR TETRA), S1P1; assay type: cell-based
Text: (§1) Agonist percentage activation determinations were obtained by assaying sample compounds and referencing the Emax control for each receptor profiled. Antagonist percentage inhibition determinations were obtained by assaying sample compounds and referencing the control EC80 wells for each receptor profiled. The samples were run using a “Single Addition” assay protocol for the agonist and antagonist assay run. The protocol design was as follows:
(§2) Master stock solution: Unless specified otherwise, all sample compounds were diluted in 100% anhydrous DMSO including all serial dilutions. All control wells contained identical solvent final concentrations as did the sample compound wells.
(§3) Compound plate for assay: The sample compounds were transferred from a master stock solution into a daughter plate that was used in the assay. Each sample compound was diluted into assay buffer (1×HBSS with 20 mM HEPES and 2.5 mM Probenecid) at an appropriate concentration to obtain final concentrations.
(§4) Sample compounds were plated in an eight-point, four-fold dilution series in duplicate with a top concentration of 10 μM. The concentrations described here reflect the final concentration of the compounds during the antagonist assay.
(§5) Reference agonists were handled as mentioned above serving as assay control. The reference agonists were handled as described above for Emax.
(§6) Assay was read for 180 seconds using the […] (This assay run added sample compounds and reference agonist to respective wells). At the completion of the first “Single Addition” assay run, assay plate was removed from the […] and placed at 25° C. for seven (7) minutes.
(§7) Using the EC80 values determined during the agonist assay, stimulated all pre-incubated sample compound and reference antagonist (if applicable) wells with EC80 of reference agonist. Read for 180 seconds using the […] (This assay added reference agonist to respective wells—then fluorescence measurements were collected to calculate percentage inhibition values).
(§8) All plates were subjected to appropriate baseline corrections. Once baseline corrections were processed, maximum fluorescence values were exported and data manipulated to calculate percentage activation, percentage inhibition and Z′.

Human ATX protein = biological target: T1, Human ATX protein (Homo sapiens, UniProt Q13822); experiment: Autotaxin (ATX) FRET assay with FS-3 substrate; assay type: biochemical
T1 construct: made in house
Text: ATX (Autotaxin) is a 125 KDa glycoprotein with lysophospholipase D (LPLD) activity that generates the bioactive lipid lysophosphatidic acid (LPA) from lysophosphatidylcholine (LPC). The ATX biochemical assay utilizes a FRET (fluorescence resonance energy transfer) technology platform. […] ATX catalyzes the hydrolysis of the substrate which separates the dabsyl quencher from the fluorescein reporter, which becomes fluorescent. The reaction is monitored by a SpectraMax M5 (Molecular Devices, Sunnyvale, Calif.) with at excitation wavelength 485 nm and emission wavelength 535 nm.
Fatty acid free-BSA (Sigma A8806): 10 mg/mL in H2O, stored at 4° C.
2×ATX assay buffer: 100 mM Tris, 280 mM NaCl, 10 mM KCl, 2 mM CaCl2, 2 mM MgCl2, pH 7.4.
Human ATX protein: expressed and purified in house. Stored at −80° C.
Substrate FS-3 (Echelon, L-2000): 100 μg in 77.74 μL H2O (1 mM stock), stored at −20° C.
Compound dilution—All compounds were provided at 10 mM in 100% DMSO. In the first well, 2 μL of 10 mM compound was added to 78 μL of DMSO (1:40 dilution). In subsequent wells 3-fold dilution (total 10 dilutions) were performed.
1×ATX assay buffer was made up with a final concentration of 1 mg/mL fatty acid free-BSA using 2×ATX assay buffer, 10 mg/ml fatty acid free-BSA and ddH2O.
38 μL was added per well to the assay plate. The final concentration of ATX in the reaction as 1.0 μg/mL.
2 μL per well of compounds was transferred to provide the desired concentration. The plate was centrifuged, then incubated at room temperature for 30 minutes on the shaker.
FS-3 was diluted with 1×ATX assay buffer to a concentration of FS-3 of 10 μM (5×). Then, 10 μL was added per well to the assay plate. The final concentration of FS-3 in the reaction was 2 μM. The plate was centrifuged. The plate was kept shaking at room temperature for 2 hours. Because FS-3 substrate is light sensitive, plates were kept covered and protected from light.

S1P4 = biological target: T2, S1P4 (Homo sapiens, UniProt O95977); experiment: S1P receptor activity assay (calcium flux, FLIPR TETRA), S1P4; assay type: cell-based
T2 sequence (O95977 1-384): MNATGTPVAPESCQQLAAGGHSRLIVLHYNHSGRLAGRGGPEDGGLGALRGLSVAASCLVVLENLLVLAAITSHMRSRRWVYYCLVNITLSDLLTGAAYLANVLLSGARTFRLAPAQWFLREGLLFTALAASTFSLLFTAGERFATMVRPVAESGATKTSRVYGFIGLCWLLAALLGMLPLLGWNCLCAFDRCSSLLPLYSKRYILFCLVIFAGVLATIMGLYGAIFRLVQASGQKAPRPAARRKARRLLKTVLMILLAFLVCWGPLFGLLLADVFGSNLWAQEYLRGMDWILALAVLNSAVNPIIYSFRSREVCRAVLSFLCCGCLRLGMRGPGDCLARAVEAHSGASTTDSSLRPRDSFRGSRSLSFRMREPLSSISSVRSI
Text: as §1, §2, §3, §4, §5, §6, §7, §8

[1] = test system: OPCs (oligodendrocyte precursor cells); experiment: OPC differentiation assay; assay type: cell-based, Sprague Dawley rats; settings: 2 μM and 20 μM, 3-day incubation
Experimental: Enriched populations of oligodendrocytes were grown from post-natal day 2 (P2) female Sprague Dawley rats. The forebrain was dissected out and placed in Hank's buffered saline solution (HBSS; Invitrogen, Grand Island, N.Y.). The tissue was cut into 1 mm fragments and incubated at 37° C. for 15 minutes in 0.01% trypsin and 10 μg/mL DNase. Dissociated cells were plated on poly-L-lysine-coated T75 tissue culture flasks and grown at 37° C. for 10 days in Dulbecco's modified Eagle's medium (DMEM) with 20% fetal calf serum (Invitrogen). A2B5+OPCs were collected by shaking the flask overnight at 200 rpm and 37° C., resulting in a 95% pure population.
For the differentiation assay, 2 μM and 20 μM antagonist or the same concentrations of vehicle (DMSO) were applied to OPCs cultured in CNTF/T3 containing media. After a 3-day incubation, […], cell were lysed and then subjected to MSD (Meso Scale Discovery-R) analysis. EC50 was calculated by Prism using a nonlinear sigmoidal dose-response curvecells. […] After centrifugation at 14,000 g for 15 minutes, the supernatants were boiled in Laemmli sample buffer, subjected to 4-20% SDS-PAGE, and analyzed by Western blotting with anti-MBP, anti-myelin-associated glycoprotein (MAG), or anti-beta actin antibodies. […]

S1P5 = S1P5 (Homo sapiens, UniProt Q9H228); experiment: S1P receptor activity assay (calcium flux, FLIPR TETRA), S1P5; assay type: cell-based
Text: as §1, §2, §3, §4, §5, §6, §7, §8

[2] = calcium flux, top concentration 10 μM, the >5 μM sentence says only 'for S1P1', read-out: IC50 for S1P1 agonist activity
[3] = FS-3 2 μM, ATX 1.0 μg/mL, 2 hours at room temperature, read-out: IC50 (ATX)
[4] = calcium flux, top concentration 10 μM, the >5 μM sentence says only 'for S1P4', read-out: IC50 for S1P4 agonist activity
[5] = calcium flux, top concentration 10 μM, read-out: IC50 for S1P5

S1P1, sequence (P21453 whole entry): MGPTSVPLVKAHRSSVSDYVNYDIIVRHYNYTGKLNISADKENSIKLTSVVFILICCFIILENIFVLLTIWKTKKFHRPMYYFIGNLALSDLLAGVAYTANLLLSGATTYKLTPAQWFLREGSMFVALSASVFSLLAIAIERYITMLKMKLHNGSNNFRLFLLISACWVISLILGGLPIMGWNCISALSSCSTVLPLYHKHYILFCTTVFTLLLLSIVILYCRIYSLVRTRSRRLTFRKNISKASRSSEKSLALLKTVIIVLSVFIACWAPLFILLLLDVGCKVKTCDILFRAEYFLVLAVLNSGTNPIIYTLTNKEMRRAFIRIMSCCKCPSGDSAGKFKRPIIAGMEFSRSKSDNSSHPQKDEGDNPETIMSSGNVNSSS
S1P5, sequence (Q9H228 whole entry): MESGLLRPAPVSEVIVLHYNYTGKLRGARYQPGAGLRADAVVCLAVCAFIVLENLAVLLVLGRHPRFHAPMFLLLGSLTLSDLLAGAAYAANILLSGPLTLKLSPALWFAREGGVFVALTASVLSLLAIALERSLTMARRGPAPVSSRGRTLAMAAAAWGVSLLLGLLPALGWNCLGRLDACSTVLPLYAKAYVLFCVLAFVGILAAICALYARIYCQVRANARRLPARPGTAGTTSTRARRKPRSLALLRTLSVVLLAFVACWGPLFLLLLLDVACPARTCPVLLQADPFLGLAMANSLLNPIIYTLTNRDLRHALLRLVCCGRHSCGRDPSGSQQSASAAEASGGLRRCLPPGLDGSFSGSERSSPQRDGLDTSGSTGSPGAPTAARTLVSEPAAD

CCCCCCCCOc1ccc(N2CCN(CCC(=O)O)CC2)cc1 [Example 14, 3-(4-(4-(Octyloxy)phenyl)piperazin-1-yl)propanoic acid]
IC50 (S1P1): > 5 µM
IC50 (Human ATX protein): > 10 µM
IC50 (S1P4): ≤ 2 µM
result in the OPC assay [1]: positive
IC50 (S1P5): > 5 µM

CCCCCCCCOc1cccc(C2CCCN(CCC(=O)O)C2)c1 (centres unmarked) [Example 5, 3-(3-(3-(Octyloxy)phenyl)piperidin-1-yl)propanoic acid]
IC50 (S1P1; [2]): > 5 µM
IC50 (Human ATX protein; [3]): 5 to 10 µM
IC50 (S1P4; [4]): ≤ 2 µM
IC50 (S1P5; [5]): > 5 µM

CC[C@H]1CC[C@@H](Oc2ccc(C3CCN(CCC(=O)O)CC3)cc2)CC1 [Example 34, 3-(4-(4-((cis-4-Ethylcyclohexyl)oxy)phenyl)piperidin-1-yl)propanoic acid]
IC50 (S1P1; [2]): > 5 µM
IC50 (Human ATX protein; [3]): > 10 µM
IC50 (S1P4; [4]): > 5 µM
IC50 (S1P5; [5]): > 5 µM

CCCCCCCCOc1cccc(C2CCCN(CCCC(=O)O)C2)c1 (centres unmarked) [Example 6, 4-(3-(3-(Octyloxy)phenyl)piperidin-1-yl)butanoic acid]
IC50 (S1P1; [2]): > 5 µM
IC50 (Human ATX protein; [3]): 5 to 10 µM
IC50 (S1P4; [4]): ≤ 2 µM
IC50 (S1P5; [5]): > 5 µM

CCCCCCCCOc1cnc(N2CCN(CCC(=O)O)CC2)nc1 [Example 21, 3-(4-(5-(Octyloxy)pyrimidin-2-yl)piperazin-1-yl)propanoic acid]
IC50 (S1P1; [2]): > 5 µM
IC50 (Human ATX protein; [3]): 5 to 10 µM
IC50 (S1P4; [4]): ≤ 2 µM
IC50 (S1P5; [5]): > 5 µM

CC(C)(C)[C@H]1CC[C@H](Oc2ccc(N3CCN(CCC(=O)O)CC3)cc2)CC1 [Example 17, 3-(4-(4-((trans-4-(tert-Butyl)cyclohexyl)oxy)phenyl)piperazin-1-yl)propanoic acid]
IC50 (S1P1; [2]): > 5 µM
IC50 (Human ATX protein; [3]): > 10 µM
IC50 (S1P4; [4]): 2 to 5 µM
IC50 (S1P5; [5]): > 5 µM

CC(C)(C)[C@H]1CC[C@H](Oc2ccc(N3CCN(CCCC(=O)O)CC3)cc2)CC1 [Example 18, 4-(4-(4-((trans-4-(tert-Butyl)cyclohexyl)oxy)phenyl)piperazin-1-yl)butanoic acid]
IC50 (S1P1; [2]): > 5 µM
IC50 (Human ATX protein; [3]): > 10 µM
IC50 (S1P4; [4]): 2 to 5 µM
IC50 (S1P5; [5]): > 5 µM

CC(C)(C)[C@H]1CC[C@@H](Oc2ccc(C3CCCN(CCCC(=O)O)C3)cc2)CC1 (stereo in doubt) [Example 4, 4-(3-(4-(cis-4-tert-Butylcyclohexyloxy)phenyl)piperidin-1-yl)butanoic acid]
IC50 (S1P1; [2]): > 5 µM
IC50 (Human ATX protein; [3]): 5 to 10 µM
IC50 (S1P4; [4]): > 5 µM
IC50 (S1P5; [5]): > 5 µM

CC(C)(C)[C@H]1CC[C@H](Oc2ccc(C3=CCN(CCCC(=O)O)CC3)cc2)CC1 [Example 47, 4-(4-(4-((trans-4-(tert-Butyl)cyclohexyl)oxy)phenyl)-5,6-dihydropyridin-1(2H)-yl)butanoic acid]
IC50 (S1P1): ≤ 2 µM
IC50 (Human ATX protein; [3]): ≤ 5 µM
IC50 (S1P4): ≤ 2 µM
IC50 (S1P5; [5]): ≤ 2 µM

CC[C@H]1CC[C@H](Oc2ccc(C3=CCN(CCC(=O)O)CC3)cc2)CC1 [Example 27, 3-(4-(4-((trans-4-Ethylcyclohexyl)oxy)phenyl)-5,6-dihydropyridin-1(2H)-yl)propanoic acid]
IC50 (S1P1): > 5 µM
IC50 (Human ATX protein; [3]): 5 to 10 µM
IC50 (S1P4): > 5 µM
IC50 (S1P5; [5]): > 5 µM

CC[C@H]1CC[C@@H](Oc2ccc(C3CCN(CCCC(=O)O)CC3)cc2)CC1 [Example 36, 4-(4-(4-((cis-4-Ethylcyclohexyl)oxy)phenyl)piperidin-1-yl)butanoic acid]
IC50 (S1P1; [2]): > 5 µM
IC50 (Human ATX protein; [3]): 5 to 10 µM
IC50 (S1P4; [4]): 2 to 5 µM
IC50 (S1P5; [5]): > 5 µM

CC[C@H]1CC[C@@H](Oc2ccc(C3=CCN(CCCC(=O)O)CC3)cc2)CC1 [Example 35, 4-(4-(4-((cis-4-Ethylcyclohexyl)oxy)phenyl)-5,6-dihydropyridin-1(2H)-yl)butanoic acid]
IC50 (S1P1): > 5 µM
IC50 (Human ATX protein; [3]): > 10 µM
IC50 (S1P4): ≤ 2 µM
IC50 (S1P5; [5]): > 5 µM

CCCCCCCCOc1ccc(N2CCN(CC34CCC(C(=O)O)(CC3)CC4)CC2)cc1 [Example 16, 4-((4-(4-(Octyloxy)phenyl)piperazin-1-yl)methyl)bicyclo[2.2.2]octane-1-carboxylic acid]
IC50 (S1P1): > 5 µM
IC50 (Human ATX protein): ≤ 5 µM
IC50 (S1P4): ≤ 5 µM
result in the OPC assay [1]: positive
IC50 (S1P5): > 5 µM

CC[C@H]1CC[C@H](Oc2ccc(C3CCN(CCCC(=O)O)CC3)cc2)CC1 [Example 30, 4-(4-(4-((trans-4-Ethylcyclohexyl)oxy)phenyl)piperidin-1-yl)butanoic acid]
IC50 (S1P1; [2]): > 5 µM
IC50 (Human ATX protein; [3]): > 10 µM
IC50 (S1P4; [4]): ≤ 2 µM
IC50 (S1P5; [5]): > 5 µM

CCCCCCCCOc1ccc(C2CCCN(C3CCC(C(=O)O)CC3)C2)cc1 (centres unmarked) [Example 26, 4-(3-(4-(Octyloxy)phenyl)piperidin-1-yl)cyclohexanecarboxylic acid]
IC50 (S1P1; [2]): > 5 µM
IC50 (Human ATX protein; [3]): 5 to 10 µM
IC50 (S1P4; [4]): 2 to 5 µM
IC50 (S1P5; [5]): > 5 µM
